Experimental data: PMC6995525, “Structure of the PUB Domain from Ubiquitin Regulatory X Domain Protein 1 (UBXD1) and Its Interaction with the p97 AAA+ ATPase” (Biomolecules, 2019)
Each block holds one substance with its values, some of them ahead of it.

Legend:
[1] = target: T1, UBXD1-PUB (Homo sapiens, UniProt Q9BZV1); assay: 15N-HSQC NMR titration of 15N-labeled UBXD1-PUB with p97 peptides; format: binding; conditions: 50 mM NaKPi pH 6.5, 25 °C; for binding in 15N-HSQC NMR titration: phosphorylated p97-C13-pY805, 270 µM protein, up to 1.25 mM peptide, 1.2 mM or 1.1 mM (Figure S1)
T1 construct: N-terminal hexahistidine-tagged UBXD1-PUB (150–264) was cloned into a pET28a expression vector; hexahistidine (His6) (N); made in house
T1 sequence (Q9BZV1 150-264): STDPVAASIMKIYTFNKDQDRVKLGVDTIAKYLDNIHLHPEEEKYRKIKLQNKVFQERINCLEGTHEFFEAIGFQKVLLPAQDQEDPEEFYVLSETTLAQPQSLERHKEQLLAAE
Method: The NMR samples contained 200–800 µM of ^15N,^13C- or ^15N-labeled protein in 50 mM NaKPi pH 6.5, 90%/10% (v/v) H2O/D2O. ^13C(aliphatic)-COSY and TOCSY experiments were measured in the same buffer with 100% D2O. All spectra were recorded at 25 °C on a 700 MHz Bruker Ultrashield NMR spectrometer equipped with a 5 mm TCI (^1H/^13C/^15N) triple resonance cryoprobe head. Spectra were processed with Topspin 3.5 (Bruker) and analyzed with CARA [42].
To 362 μM ^15N-labeled UBXD1-PUB, the p97-C10 or p97-C13 peptides were added stepwise to a final concentration of 1.1 mM. For the titration of the phosphorylated p97-C13-pY^805 peptide to the PUB domain, the protein concentration was 270 µM, and the peptide was titrated to a final concentration of 1.2 mM. After each addition, the ^1H,^15N-HSQC spectrum was recorded.
The chemical shift perturbation Δδtotal was calculated from the ^1H- and ^15N-shifts according to Equation (1) using the spectra with no peptide and the highest concentration of peptide, where ΔδN and ΔδH represent the chemical shift perturbation value of the amide nitrogen and proton, respectively:(1) Δδtotal=(ΔδH)^2+(0.154⋅ΔδN)^2.

[2] = target: T2, UBXD1 PUB domain (Homo sapiens, UniProt Q9BZV1); assay: p97-PIM peptide binding to UBXD1 PUB domain (summary); conditions: isolated p97-PIM peptide
T2 construct: N-terminal hexahistidine-tagged UBXD1-PUB (150–264) was cloned into a pET28a expression vector; hexahistidine (His6) (N); made in house
T2 sequence (Q9BZV1 150-264): T1 sequence (Q9BZV1 150-264)
Method: Fluorescence anisotropy measurements (excitation: 495 nm; emission 518 nm) were carried out on a JASCO FP-8300 fluorescence spectrometer in 50 mM NaKPi, pH 6.5 at 25 °C, titrating PUB constructs to 5,6-FAM labeled p97-C10 peptide (100 nM). All titrations were performed in triplicate. Binding curves of the averaged data were fitted with GraphPad Prism 5.0 (GraphPad) using the quadratic binding equation for a one-site specific binding model:(3) r=r0+rmax⋅(F+x+KD)−(F+x+KD)^2−4⋅x⋅F/2⋅F, with r = anisotropy, r0 = anisotropy without protein, rmax = maximum anisotropy, F = fluorescent probe (labeled peptide or protein) concentration, x = titrant protein concentration, and KD = dissociation constant.
ITC measurements were performed in triplicate with a MicroCal iTC2000 (Malvern Pananalytical). UBXD1-PUB (100 µM) was titrated with 1 mM of p97-C10 peptide in 50 mM NaKPi buffer (pH 6.5) at 25 °C in 40 steps with a volume of 0.5 µL for the first 9 steps and 1.0 µL for the remaining ones.

[3] = target: PNGase PUB domain; conditions: ref [25],[27],[34]; cited from earlier work
Text: (§1) UBXD1, PNGase, and HOIP PUB domains bind the p97-PIM peptide with KDs in the low µM range and a 1:1 stoichiometry (Table 2, Figure 4, Figure 5 and Figure S2, and [25, 27, 34]). The KD of HOIP for the OTULIN- and SPATA2-PIMs, however, is 50 times lower and lies in the nM range, which maybe reflects that these complexes either operate at lower concentrations in the cell or a have a lesser need to exchange their binding partners. p97, on the other hand, might need to swap cofactors more readily either within one pathway or to switch between different pathways.

[4] = target: HOIP PUB domain; conditions: ref [25],[27],[34]; cited from earlier work
Text: as §1

chemical shift perturbations (CSPs) Δδtotal ([1]; 362 μM 15N-UBXD1-PUB, peptide to 1.1 mM, resonances between second and fourth α-helix): > 0.2 ppm
Substance: SVYTEDNDDDLYG [p97-C13]

binding in 15N-HSQC NMR titration [1]: no
binding in 15N-HSQC NMR titration ([1]; listed as p97-C13 peptide carrying a phosphorylated pY805): did not show any binding
Substance: SVYTEDNDDDLpYG [phosphorylated p97-C13]

KD of PUB domain for p97-PIM peptide [2]: low µM range
Substance: p97-PIM peptide: PUB interacting motif (PIM) in the p97 C-terminus (TEDNDDDLYG)
KD of PUB domain for p97-PIM peptide [3]: low µM range
KD of PUB domain for p97-PIM peptide [4]: low µM range
